Measurements taken from article PMC11873758, “Lonidamine, a Novel Modulator for the BvgAS System of Bordetella Species” (Microbiology and Immunology, 2024).

Target: T1, VFT2 domain of BvgS (Bordetella pertussis, UniProt P16575)
T1 construct: His tag from pColdII (no GB1)
Test: isothermal titration calorimetry
Assay type: binding
Settings: 50 mM sodium phosphate, pH 7.4; 300 µM lonidamine into 20 µM VFT2

T1 sequence (P16575 290-541): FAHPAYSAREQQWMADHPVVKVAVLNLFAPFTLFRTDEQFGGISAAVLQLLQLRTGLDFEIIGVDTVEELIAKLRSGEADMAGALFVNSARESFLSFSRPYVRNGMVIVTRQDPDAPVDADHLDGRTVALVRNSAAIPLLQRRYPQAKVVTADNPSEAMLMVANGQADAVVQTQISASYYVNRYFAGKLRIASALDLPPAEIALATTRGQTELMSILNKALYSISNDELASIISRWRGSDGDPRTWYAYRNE

Q: `O=C(O)c1nn(Cc2ccc(Cl)cc2Cl)c2ccccc12` [#5, 1‐(2,4‐dichlorobenzyl)‐1H‐indazole‐3‐carboxylic acid] was tested. Which isothermal titration calorimetry did it give?
A: Its isothermal titration calorimetry is “ITC revealed that lonidamine bound to VFT2 but not VFT1”.
